According to patent publication US20060106032A1, “Synthesis of N2 - (substituted arylmethyl) -3- (substituted phenyl) indazoles as novel anti-angiogenic agents” (YUNG SHIN PHARM. IND. CO., LTD., priority 2004, published 2006):

Experiments:
[1] = tested on: human umbilial vein endothelial cells (HUVECs); settings: previous finding; cited from earlier work
[2] = tested on: VEGF-induced angiogenesis; settings: previous finding; cited from earlier work
[3] = tested on: Human umbilical vein endothelial cells (HUVECs); experiment: [3H]thymidine incorporation assay: VEGF-induced cell proliferation (DNA synthesis) of HUVECs; assay type: cell-based; settings: VEGF 10 ng/mL
Protocol: (§1) Human umbilical vein endothelial cells were incubated in the absence (basal and control) or presence of tested sample (YD-3, 10, 15, 17, 21, 25, 26) with 30 μM, and then vascular endothelial growth factor (VEGF) was added (except for basal) to induce DNA synthesis, which was detected using [^3H] thymidine incorporation assay.
as §1, with “10” for “30”, “inducd” for “induce”, “assay. Means±S.E. (n=5) were presented.” for “assay.”
as §1, with “1” for “30”, “inducd” for “induce”, “assay. Means±S.E. (n=5) were presented.” for “assay.”
(§2) Human umbilical vein endothelial cells (HUVECS) were isolated according to the protocols from Jaffe et al. and obtained from human umbilical cord veins with collagenase and cultured in 75 cm^2 plastic flasks in M199 containing 20% FBS, 15 μg/mL endothelial cell growth supplements (ECGs). Confirmation of their identity as endothelial cells was provided by detection of CD31 (PECAM-1), assessed by immunostaining. Experiments were conducted on HUVECs that had used in passage 2 to 5.
Confluent HUVECs were trypsinized, suspended in DMEM supplemented with 20% FBS, and seeded at 1.0×10^4 cells per well into 96-well plates. After 24 h, the cells were washed twice with PBS and starved with 2% FBS-M199 medium for 24 h. The cells were incubated with or without indicated reagents and growth factors (VEGF; 10 ng/mL) for 24 h and harvested. Before the harvest, cells were incubated with [^3H]thymidine (2 μCi/mL) for 4 h, harvested with Filter-Mate (Packard), and incorporated radioactivity was determined.
The effect of tested compounds on VEGF-induced cell proliferation of HUVECs was assessed with the [^3H]thymidine incorporation assay, and the results were illustrated in FIG. 5-FIG. 7.

[4] = tested on: Human umbilical vein endothelial cells (HUVECs); experiment: VEGF-induced tube formation of HUVECs on Matrigel; assay type: cell-based; settings: FIG. 8
Protocol: FIG. 8 show photographs of the results of in vitro assay (inhibition of tube formation). Human umbilical vein endothelial cells were cultured onto chamberslide, which was precoated with Matrigel (10 mg/ml). Cells were treated without (basal and control) or with tested sample (YD-3, 10, 15, 17, 21, 25, 26) and then vascular endothelial growth factor (VEGF) was added to induce tube formation. All photographs were taken at 100×magnification.
as §2

[5] = tested on: VEGF-induced angiogenesis in Matrigel plug; experiment: In vivo Matrigel plug assay (neovascular formation, hemoglobin concentration); settings: nude mice, FIG. 9
Protocol: Nude mice were subcutaneously injected with a Matrigel plug containing 150 ng/ml vascular endothelial growth factor (VEGF). Vehicle or tested sample (YD-3, 10, 15, 17, 21, 25, 26) was orally administered into the mice. After a seven-day administration, the animals were euthanized and the plugs were cut of the mice for the measurement of angiogenic effect using the hemoglobin concentration as the parameter by means of a hemoglobin detection kit (Sigma). Means±S.E. (n=3) were presented. Nude mice (6 weeks of age) were given s.c. injections of 500 μL of Matrigel (Becton Dickinson, Bedford, Mass.) at 4° C. with or without YC-1 and growth factor (150 ng/mL VEGF). After injection, the Matrigel rapidly formed a plug. After 7 days, the skin of the mouse was easily pulled back to expose the Matrigel plug, which remained intact. After quantitative differences were noted and photographed, hemoglobin was measured, as an indication of blood vessel formation, using the Drabkin method (Drabkin reagent kit 525, Sigma, St. Louis, Mo.). The concentration of hemoglobin was calculated from a known amount of hemoglobin assayed in parallel. The in vivo Matrigel plug assay was used in this study to determine quantitative the anti-angiogenic effect of tested compounds.

angiogenesis = experiment: Evaluation for anti-angiogenic activities (overall summary); settings: summary statement
Protocol: 3-(4-Methylphenyl)-1H-indazole (10) and N^2-(substituted benzyl)-3-(4-methylphenyl)indazoles (15, 17, 21, 25, 26) were evaluated for anti-angiogenic activities.
In this study, 3-(4-methylphenyl)-1H-indazole (10) and five of the above mentioned N^2-regioisomers, namely, compounds 15, 17, 21, 25 and 26 were selected for evaluating their effects on VEGF-induced cell proliferation, on VEGF-induced tube formation of HUVECs in vitro, and on neovascular formation in vivo.

[6] = molecular target: T1, protease activated receptor (PAR)-4 (Homo sapiens, UniProt Q96RI0); settings: previous works; cited from earlier work
T1 sequence (Q96RI0 18-385): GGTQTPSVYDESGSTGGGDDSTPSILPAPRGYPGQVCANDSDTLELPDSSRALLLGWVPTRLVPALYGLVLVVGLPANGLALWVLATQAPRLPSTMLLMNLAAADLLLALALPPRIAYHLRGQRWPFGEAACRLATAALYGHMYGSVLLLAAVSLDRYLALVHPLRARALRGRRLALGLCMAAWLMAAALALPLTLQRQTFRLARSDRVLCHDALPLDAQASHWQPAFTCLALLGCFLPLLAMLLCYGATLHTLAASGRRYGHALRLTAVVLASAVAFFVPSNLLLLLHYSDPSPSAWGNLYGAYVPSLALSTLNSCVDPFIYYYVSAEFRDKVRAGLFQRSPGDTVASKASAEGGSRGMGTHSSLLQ

[7] = tested on: thrombin-induced Ca++ signal and thromboxane production; settings: previous work; cited from earlier work

melting point | Compound | inhibition of VEGF-induced cell proliferation in HUVECs [1] | inhibition of VEGF-induced migration in HUVECs [1] | inhibition of VEGF-induced tube formation in HUVECs [1] | inhibition of VEGF-induced angiogenesis in Matrigel plug animal model [2] | activity on VEGF-induced cell proliferation of HUVECs compared with positive control YD-3 ([3]; 1 μM) | inhibitory effect on VEGF-induced cell proliferation of HUVECs ([3H]thymidine incorporation) ([3]; 10 μM, FIG. 6) | inhibitory effect on VEGF-induced cell proliferation of HUVECs ([3H]thymidine incorporation) ([3]; 30 μM, FIG. 5) | inhibitory activity on tube formation compared with other tested compounds and YD-3 [4] | blockage of VEGF-induced tube formation of HUVECs ([4]; Matrigel-coated chamberslide) | anti-angiogenic activity in Matrigel plug assay (hemoglobin concentration) ([5]; 150 ng/ml VEGF plug, oral, seven-day administration) | anti-angiogenic potency in Matrigel plug assay compared with positive control YD-3 [5] | anti-angiogenic activity (overall) (angiogenesis) | inhibition of PAR-4-dependent activation [6] | inhibition of low thrombin-induced Ca++ signal [7] | inhibition of low thrombin-induced thromboxane production [7]
– | O=C(O)c1ccc(-c2nn(Cc3ccccc3)c3ccccc23)cc1 [CHS-6, 4-(1-benzyl-1H-indazol-3-yl)benzoic acid] | inhibit | inhibit | inhibit | inhibit | – | – | – | – | – | – | – | – | – | – | –
107.5 to 109.3 °C | Cc1ccc(Cn2nc3ccccc3c2-c2ccc(C)cc2)cc1 [Compound 21, 2-(4-Methylbenzyl)-3-(4-methylphenyl)-2H-indazole] | – | – | – | – | better activity than positive control YD-3 | significant inhibitory effect | significant inhibitory effect | more potent than other tested compounds and YD-3 | significant blockage | significant anti-angiogenic activities | superior potency than the positive control YD-3 | significant anti-angiogenic activity | – | – | –
– | CCOC(=O)c1ccc(-c2nn(Cc3ccccc3)c3ccccc23)cc1 [YD-3, Ethyl 4-(1-benzyl-1H-indazol-3-yl)benzoate] | inhibit | inhibit | inhibit | inhibit | – | significant inhibitory effect | significant inhibitory effect | – | – | – | – | – | selective and potent inhibitor | effectively inhibits | effectively inhibits
